What was measured:
[1] = target: T1, CD73 on U138 human neuroglioma cells (Homo sapiens, UniProt P21589); assay: CD73 Cell-Based Assay; conditions: U138 cells, AMP substrate, 2 hours at 37° C., inorganic phosphate by malachite green
T1 construct: U138 cells were obtained from ATCC and cultured in DMEM with 10% FBS; host or cells: U138 human neuroglioma cells
T1 sequence (P21589 27-549): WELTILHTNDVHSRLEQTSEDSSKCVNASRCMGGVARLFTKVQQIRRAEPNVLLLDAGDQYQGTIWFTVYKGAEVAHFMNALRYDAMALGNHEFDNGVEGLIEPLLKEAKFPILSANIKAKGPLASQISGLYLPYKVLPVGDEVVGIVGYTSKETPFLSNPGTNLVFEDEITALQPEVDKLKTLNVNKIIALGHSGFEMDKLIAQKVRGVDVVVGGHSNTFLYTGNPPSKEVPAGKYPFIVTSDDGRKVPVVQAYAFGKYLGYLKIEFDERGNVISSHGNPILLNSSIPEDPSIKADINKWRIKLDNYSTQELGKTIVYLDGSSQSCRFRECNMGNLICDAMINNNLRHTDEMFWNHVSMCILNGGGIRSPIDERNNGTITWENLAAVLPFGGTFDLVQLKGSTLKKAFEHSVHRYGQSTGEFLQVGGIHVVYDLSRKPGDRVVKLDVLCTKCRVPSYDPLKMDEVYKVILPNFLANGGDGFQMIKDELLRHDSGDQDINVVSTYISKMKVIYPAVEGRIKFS
Method in brief: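 Whole U138 cells washed free of phosphate were incubated with 200 μM AMP (mixture concentration before equal-volume addition) plus compound in HEPES-buffered saline, pH 7.4, for 2 h at 37 °C, 5% CO2. Adenosine-forming activity read as inorganic phosphate released into supernatant by malachite green.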

Human CD73 = target: T2, Human CD73 (Homo sapiens, UniProt P21589); assay: CD73 Enzyme Assay; assay type: biochemical; conditions: 0.25 nM hCD73, 25 μM AMP, kinetic read at 360 nm; read-out: CD73 Enzyme Assay IC50
T2 construct: purchased R&D Systems; host or cells: CHO cells
T2 sequence (P21589 27-549): T1 sequence (P21589 27-549)

| SMILES | IC50 [1] | IC50 (Human CD73) |
| --- | --- | --- |
| CN(c1nc(Cl)nc2c1ncn2[C@@H]1O[C@H](COCP(=O)(O)O)[C@@H](O)[C@H]1O)C1CCCC1 [Compound 186, [(2R,3S,4R,5R)-5-[2-chloro-6-[cyclopentyl-(methyl)amino]purin-9-yl]-3,4-dihydroxy-tetrahydrofuran-2-yl]-methoxymethylphos-phonic acid] | 10 to 100 nM | < 10 nM |
| N#Cc1nc(N2CC3CC3C2)c2cnn([C@@H]3O[C@H](CS(=O)(=O)CP(=O)(O)O)[C@@H](O)[C@H]3O)c2n1 (stereo partly drawn) [Compound 288, [(2S,3S,4R,5R)-5-[4-(3-azabicyclo[3.1.0]-hexan-3-yl)-6-cyano-pyrazolo[3,4-d]-pyrimidin-1-yl]-3,4-dihydroxy-tetrahydro-furan-2-yl]methyl-sulfonylmethylphos-phonic acid] | 10 to 100 nM | 10 to 100 nM |
| CCNc1nc(C#N)nc2c1ccn2[C@@H]1O[C@H](COCP(=O)(O)O)[C@@H](O)[C@H]1O [Compound 108, [(2R,3S,4R,5R)-5-[2-cyano-4-(ethylamino)-pyrrolo[2,3-d]-pyrimidin-7-yl]-3,4-dihydroxy-tetrahydro-furan-2-yl]methoxy-methylphosphonic acid] | 10 to 100 nM | 10 to 100 nM |
| N#Cc1nc(N2CCC2)c2ccn([C@@H]3O[C@H](COCP(=O)(O)O)[C@@H](O)[C@H]3O)c2n1 [Compound 122, [(2R,3S,4R,5R)-5-[4-(azetidin-1-yl)-2-cyano-pyrrolo[2,3-d]-pyrimidin-7-yl]-3,4-dihydroxy-tetrahydro-furan-2-yl]methoxy-methylphosphonic acid] | 10 to 100 nM | 10 to 100 nM |
| CC(C)(C)C#Cc1nc(NC2CCCC2)c2ccn([C@@H]3O[C@H](COCP(=O)(O)O)[C@@H](O)[C@H]3O)c2n1 [Compound 254, [(2R,3S,4R,5R)-5-[4-(cyclopentylamino)-2-(3,3-dimethylbut-1-ynyl)pyrrolo[2,3-d]-pyrimidin-7-yl]-3,4-dihydroxy-tetrahydro-furan-2-yl]methoxy-methylphosphonic acid] | 100 to 1000 nM | 100 to 1000 nM |
| O=P(O)(O)COC[C@H]1O[C@@H](n2cnc3c(NCc4ccccc4)ncnc32)[C@H](O)[C@@H]1O [Compound 1, [(2R,3S,4R,5R)-5-[6-(benzylamino)purin-9-yl]-3,4-dihydroxy-tetrahydrofuran-2-yl]methoxymethyl-phosphonic acid] | > 1000 nM | > 1000 nM |
| C[C@H](Nc1nc(Cl)nc2c1ccn2[C@@H]1O[C@H](COCP(=O)(O)O)[C@@H](O)[C@H]1O)c1ccccc1 [Compound 60, [(2R,3S,4R,5R)-5-[2-chloro-4-[[(1S)-1-phenylethyl]amino]-pyrrolo[2,3-d]-pyrimidin-7-yl]-3,4-dihydroxy-tetrahydro-furan-2-yl]methoxy-methylphosphonic acid] | 10 to 100 nM | < 10 nM |
| O=P(O)(O)COC[C@H]1O[C@@H](n2cnc3c(N4CCCC4)ncnc32)[C@H](O)[C@@H]1O [Compound 43, [(2R,3S,4R,5R)-3,4-dihydroxy-5-(6-pyrrolidin-1-ylpurin-9-yl)tetrahydrofuran-2-yl]methoxymethyl-phosphonic acid] | 100 to 1000 nM | 100 to 1000 nM |
| CN(c1nc(Cl)nc2c1ccn2[C@@H]1O[C@H](COCP(=O)(O)O)[C@@H](O)[C@H]1O)C1CCCC1 [Compound 192, [(2R,3S,4R,5R)-5-[2-chloro-4-[cyclopentyl-(methyl)amino]pyrrolo-[2,3-d]pyrimidin-7-yl]-3,4-dihydroxy-tetra-hydrofuran-2-yl]-methoxymethylphos-phonic acid] | < 10 nM | < 10 nM |

Further lines, results first:

| IC50 [1] | IC50 (Human CD73) | SMILES |
| --- | --- | --- |
| < 10 nM | < 10 nM | O=P(O)(O)COC[C@H]1O[C@@H](n2ccc3c(NC4CCCC4)nc(C#CCO)nc32)[C@H](O)[C@@H]1O [Compound 243, [(2R,3S,4R,5R)-5-[4-(cyclopentylamino)-2-(3-hydroxyprop-1-ynyl)pyrrolo[2,3-d]-pyrimidin-7-yl]-3,4-dihydroxy-tetrahydro-furan-2-yl]methoxy-methylphosphonic acid] |
| < 10 nM | < 10 nM | O=P(O)(O)COC[C@H]1O[C@@H](n2ncc3c(NC4CC(F)(F)C4)nc(Cl)nc32)[C@H](O)[C@@H]1O [Compound 271, [(2R,3S,4R,5R)-5-[6-chloro-4-[(3,3-difluoro-cyclobutyl)amino]-pyrazolo[3,4-d]-pyrimidin-1-yl]-3,4-dihydroxy-tetrahydro-furan-2-yl]methoxy-methylphosphonic acid] |
| < 10 nM | < 10 nM | C[C@H](Nc1nc(C#N)nc2c1ccn2[C@@H]1O[C@H](COCP(=O)(O)O)[C@@H](O)[C@H]1O)c1ccc(F)cc1F [Compound 138, [(2R,3S,4R,5R)-5-[2-cyano-4-[[(1S)-1-(2,4-difluorophenyl)ethyl]-amino]pyrrolo[2,3-d]-pyrimidin-7-yl]-3,4-dihydroxy-tetrahydro-furan-2-yl]methoxy-methylphosphonic acid] |
| < 10 nM | < 10 nM | Cc1ccc([C@@H](C)Nc2nc(Cl)nc3c2ccn3[C@@H]2O[C@H](COCP(=O)(O)O)[C@@H](O)[C@H]2O)cc1 [Compound 136, [(2R,3S,4R,5R)-5-[2-chloro-4-[[(1R)-1-(p-tolyl)ethyl]amino]-pyrrolo[2,3-d]-pyrimidin-7-yl]-3,4-dihydroxy-tetrahydro-furan-2-yl]methoxy-methylphosphonic acid] |
| < 10 nM | < 10 nM | O=P(O)(O)CS(=O)(=O)C[C@H]1O[C@@H](n2ccc3c(N4CC5CCCC5C4)nc(Cl)nc32)[C@H](O)[C@@H]1O (stereo partly drawn) [Compound 156, [(2S,3S,4R,5R)-5-[4-(3,3a,4,5,6,6a-hexa-hydro-1H-cyclopenta-[c]pyrrol-2-yl)-2-chloro-pyrrolo[2,3-d]-pyrimidin-7-yl]-3,4-dihydroxy-tetrahydro-hydrofuran-2-yl]-methylsulfonylmethyl-phosphonic acid] |
| < 10 nM | < 10 nM | O=P(O)(O)CS(=O)(=O)C[C@H]1O[C@@H](n2ccc3c(NC4CCC4)nc(Cl)nc32)[C@H](O)[C@@H]1O [Compound 172, [(2S,3S,4R,5R)-5-[2-chloro-4-(cyclobutyl-amino)pyrrolo[2,3-d]-pyrimidin-7-yl]-3,4-dihydroxy-tetrahydro-furan-2-yl]methyl-sulfonylmethylphos-phonic acid] |
| < 10 nM | < 10 nM | CC(C)(C)C(=O)OCOP(=O)(O)CS(=O)(=O)C[C@H]1O[C@@H](n2ccc3c(NC4CCCC4)nc(Cl)nc32)[C@H](O)[C@@H]1O [Compound 161, [(2S,3S,4R,5R)-5-[2-chloro-4-(cyclopentyl-amino)pyrrolo[2,3-d]-pyrimidin-7-yl]-3,4-dihydroxy-tetrahydro-furan-2-yl]methyl-sulfonylmethyl-(2,2-dimethylpropanoyl-oxymethoxy)phos-phinic acid] |
| < 10 nM | < 10 nM | O=P(O)(O)COC[C@H]1O[C@@H](c2c[nH]c3c(N4CC5CCCC5C4)nc(Cl)nc23)[C@H](O)[C@@H]1O (stereo partly drawn) [Compound 285, ((((2R,3S,4R,5S)-5-(2-chloro-4-(hexahydrocyclopenta[c]pyrrol-2 (1H)-yl)-5H-pyrrolo[3,2-d]pyrimidin-7-yl)-3,4-dihydroxytetrahydrofuran-2-yl)methoxy)methyl)phosphonic acid] |
| < 10 nM | < 10 nM | O=P(O)(O)COC[C@H]1O[C@@H](n2ncc3c(N4CC5CCCC5C4)nc(Cl)nc32)[C@H](O)[C@@H]1O (stereo partly drawn) [Compound 274, [(2R,3S,4R,5R)-5-[4-(3,3a,4,5,6,6a-hexa-hydro-1H-cyclopenta-[c]pyrrol-2-yl)-6-chloro-pyrazolo[3,4-d]-pyrimidin-1-yl]-3,4-dihydroxy-tetrahydro-furan-2-yl]methoxy-methylphosphonic acid] |
| < 10 nM | < 10 nM | C[C@H](Nc1nc(C#N)nc2c1ccn2[C@@H]1O[C@H](COCP(=O)(O)O)[C@@H](O)[C@H]1O)c1ccc(C#N)cc1 [Compound 141, [(2R,3S,4R,5R)-5-[2-cyano-4-[[(1S)-1-(4-cyanophenyl)ethyl]-amino]pyrrolo[2,3-d]-pyrimidin-7-yl]-3,4-dihydroxy-tetrahydro-furan-2-yl]methoxy-methylphosphonic acid] |
| < 10 nM | < 10 nM | CCN(c1nc(Cl)nc2c1ccn2[C@@H]1O[C@H](COCP(=O)(O)O)[C@@H](O)[C@H]1O)C1CCCC1 [Compound 195, [(2R,3S,4R,5R)-5-[2-chloro-4-[cyclopentyl-(ethyl)amino]pyrrolo-[2,3-d]pyrimidin-7-yl]-3,4-dihydroxy-tetra-hydrofuran-2-yl]-methoxymethylphos-phonic acid] |
